Columns and labels:
[1] = test system: BT549 cells; experiment: Immunofluorescence, mitotic spindle morphology; assay type: cell-based, human; conditions: BT549, 100 μM and 200 μM, 2.5 hr
Protocol: (§1) […] Prewarmed 4% paraformaldehyde in PBS was then added to each well to fix the cells before washing with PBS. Permeabilization and blocking was performed by incubating the slides with 1% BSA, 0.3% Triton X-100, 5% goat serum in PBS (PBS/B/0.3%T+5%GS) for 1 hr while shaking them at room temperature (RT). The slides were incubated with primary antibody solutions (mouse monoclonal anti-α-Tubulin [catalog number T9026; Sigma-Aldrich] and rabbit anti-CDK5RAP2 [catalog number A300-554A; Bethyl Laboratories]) at 4°C for 16 hr. The slides were washed four times with PBS/B/0.3%T+5%GS and then incubated with secondary antibody solutions (anti-rabbit IgG Alexa Fluor 488 [catalog number A21206] and anti-mouse IgG Alexa Fluor 647 [catalog number A20990]; Invitrogen) and DAPI (catalog number D3571; Invitrogen) in deionized water (300 nM) in the dark at RT for 1 hr. After four washes with PBS/B/0.3%T+5%GS, the solution was replaced with PBS and the slides were stored at 4°C until imaging was performed. Images were gathered with the use of an ICys Research Imaging Cytometer (CompuCyte) or a tandem confocal microscope (Leica).
(§2) (1 picture or pasted object on this page, not shown here)

[2] = test system: MCF-7 cells; experiment: Immunofluorescence, mitotic spindle morphology; assay type: cell-based, human; conditions: MCF-7, 100 μM and 200 μM, 2.5 hr
Protocol: as §1, §2

[3] = test system: MDA-MB-231 cells; experiment: Immunofluorescence, mitotic spindle morphology; assay type: cell-based, human; conditions: MDA-MB-231, 100 μM and 200 μM, 2.5 hr
Protocol: as §1, §2

[4] = test system: HeLa cells; experiment: Time-lapse video microscopy, mitotic duration, arrest and exit; assay type: cell-based, human; conditions: 200 μM CW069, 100 μM monastrol
Protocol: HSET is known to antagonize the activity of the related kinesin, KSP, during spindle formation ([Mountain et al., 1999]). Therefore, we used time-lapse video microscopy to investigate whether CW069-treated cells transit mitosis with normal kinetics, and whether the characteristic mitotic arrest induced by inhibition of KSP ([Mayer et al., 1999]) could be suppressed by cotreatment with CW069. To this end, HeLa cells were treated with either DMSO control (0.2%), 200 μM CW069, 100 μM monastrol, or CW069+monastrol for 60 min before being imaged every 5 min for a further 360 min. Mitotic duration (MD) was defined as the period of time between when the cells began to round up and the onset of anaphase. No statistical difference was recorded between control cells and cells treated with 200 μM CW069 (MD 55 ± 7 and 53 ± 6 min, respectively, Figures 6A, 6B, and S7). […] This effect was reversed to a large extent by cotreatment of CW069 with monastrol. […] This is consistent with observations previously reported for KSP-depleted cells ([Mountain et al., 1999]). […] Cells were synchronized in G2-M by incubation at 37°C and 5% CO2 for 24 hr with 9 μM of the CDK1 inhibitor RO-3306 (Merck). Cells were released by removal of the RO-3306 and four washings of 10 min each, at 37°C, with prewarmed culture media + 10% FBS. N1E-115 cells were transfected with siRNA (Supplemental Experimental Procedures) and imaged from 6 hr after transfection. Some RO-3306-synchronized cells were released with 200 μM CW069, 100 μM monastrol, or 0.2% DMSO, and imaging started immediately or 1 hr after treatment. Imaging was carried out for 24 hr, or for 4 hr in the case of the CW069/monastrol cotreatment. Imaging was conducted every 5 min in a humidified chamber with 37°C and 5% CO2, using a Nikon Eclipse TE2000-E microscope, and analyzed with NIS-Elements software (Nikon, Tokyo, Japan). The morphology of cells in mitosis and the mitotic fate (bipolar division, multipolar division, or cell death) were analyzed.

[5] = test system: N1E-115 cells; experiment: IncuCyte live-cell imaging, proliferation; assay type: cell-based, mouse; conditions: N1E-115, 100-350 μM; p = 0.0192 control vs 150 μM
Description: In order to ascertain whether CW069 could more broadly reduce proliferation in a range of cancer cells, we carried out IncuCyte live-cell imaging on N1E-115 cells and BT549 (with lower but marked centrosome amplification) and MCF-7 (with normal centrosome numbers) breast cancer cells. Cells were imaged for 21 hr prior to treatment with DMSO control (0.2%) and various concentrations of CW069, and then imaged for a further 36 hr. […] It could also be due to another direct or indirect effect, and the role of HSET in the survival of cancer cells with normal centrosome numbers remains to be fully understood.
NHDF cells were obtained from PromoCell, and the N1E-115 and HeLa cells were obtained from ATCC/LGC Standards. The BT549, MCF-7 and MDA-MB-231 cells were kind gifts from the Caldas laboratory (CRUK Cambridge Institute) and were originally obtained from ATCC/LGC. All human cells were verified by STR genotyping and all tested negative for mycoplasma. […] Fluorescence was quantified using an Infinite 200 PRO plate-reader (Tecan) at a wavelength of 545 nm. […]
For live-cell imaging, plated cells were imaged prior to treatment for 24 hr and then after treatment for 72 hr. […] Data were analyzed as the percentage of original cell confluency in order to directly compare each compound treatment with the DMSO control.

[6] = >200 cells that entered mitosis >60 min after treatment

SMILES: O=C(O)c1cc(I)ccc1NC(=O)[C@H](Cc1ccccc1)NCc1ccccc1 [CW069]
- multipolar spindles [1]: increased multipolar spindles
- bipolar spindle formation [2]: did not perturb bipolar spindle formation
- multipolar spindles [3]: small but significant increase in multipolar spindles
- Mitotic Arrest (%) [4, 6]: 4%
- Mitotic Exit (%) [4, 6]: 96%
- Mitotic duration (MD) ([4]; rounding up to anaphase onset, cells transiting mitosis): 53 ± 6 min
- cell proliferation [5]: reduction in cell proliferation
